“And” between values parts separate entries of the source, which are not always exact repeats. Equal entries are not always repeated.
Experiments:
[1] = for vapor or sublimation pressure: Liquid, Ebulliometric method (Recirculating still)
[2] = Molar enthalpy of transition or fusion; conditions: Crystal; Adiabatic calorimetry
[3] = molar heat capacity at saturation pressure

c1cnc2c(c1)ccc1cccnc12 [1,10-phenanthroline]
[1]
Conditions	vapor or sublimation pressure
523.28 K	2 kPa and 2.001 kPa
531.9 K	2.668 kPa
554.04 K	5.325 kPa
568.22 K	8.008 kPa
578.69 K	10.65 kPa
587.24 K	13.33 kPa
595.98 K	16.64 kPa
603.36 K	19.95 kPa

Conditions	Triple point temperature, Crystal [K]	molar heat capacity, 460 K [J/K/mol]	molar heat capacity, 480 K [J/K/mol]	molar heat capacity, 500 K [J/K/mol]	molar heat capacity, 520 K [J/K/mol]	molar heat capacity, 540 K [J/K/mol]	molar heat capacity, 560 K [J/K/mol]	molar heat capacity, 580 K [J/K/mol]	molar heat capacity, 600 K [J/K/mol]
[1], Adiabatic calorimetry	391.71	–	–	–	–	–	–	–	–
[3], Liquid	–	337.52	346.29	355	363.5	371.9	380.1	388.2	396

Conditions	Molar enthalpy of transition or fusion [kcal/mol]
[2]	3.705

molar heat capacity [J/K/mol], [3], Vacuum adiabatic calorimetry
Conditions	Crystal	Liquid
5 K	1.26	–
5.659 K	1.78	–
6.394 K	2.35	–
7.405 K	3.18	–
8.419 K	4.13	–
9.46 K	5.19	–
10 K	5.74	–
10.55 K	6.31	–
11.75 K	7.62	–
13.08 K	9.121	–
14.53 K	10.68	–
16.13 K	12.55	–
17.88 K	14.51	–
19.8 K	16.6	–
20 K	16.82	–
21.93 K	18.87	–
24.3 K	21.41	–
26.92 K	24.1	–
29.85 K	26.95	–
30 K	27.1	–
33.1 K	29.99	–
36.75 K	33.23	–
40 K	35.93	–
40.82 K	36.58	–
45.34 K	40.14	–
50 K	43.64	–
50.36 K	43.96	–
55.93 K	47.63	–
57.69 K	48.9	–
60 K	50.34	–
60.42 K	50.6	–
63.28 K	52.36	–
66.47 K	54.41	–
69.78 K	56.39	–
70 K	56.51	–
73.24 K	58.45	–
76.94 K	60.52	–
80 K	62.29	–
80.6 K	62.63	–
84.91 K	65	–
88.8 K	67.21	–
90 K	67.87	–
97.84 K	72.09	–
100 K	73.23	–
100.26 K	73.38	–
109.98 K	78.65	–
119.96 K	84.22	–
120 K	84.24	–
131.01 K	90.44	–
140 K	95.58	–
143.07 K	97.35	–
155.1 K	104.48	–
160 K	107.41	–
167.1 K	111.7	–
179.08 K	119.1	–
180 K	119.68	–
191.08 K	126.69	–
200 K	132.42	–
203.14 K	134.46	–
215.25 K	142.45	–
220 K	145.57	–
227.38 K	150.47	–
239.55 K	158.67	–
240 K	158.97	–
251.77 K	167.01	–
260 K	172.69	–
264.02 K	175.49	–
276.3 K	183.86	–
280 K	186.36	–
288.6 K	192.35	–
289.46 K	192.8	–
298.15 K	198.74	–
300 K	200	–
300.24 K	200.19	–
312.29 K	208.49	–
320 K	213.76	–
324.53 K	216.87	–
336.89 K	225.26	–
336.98 K	225.23	–
340 K	227.24	–
348.97 K	233.42	–
349.32 K	233.65	–
360 K	240.63	–
361.05 K	241.49	–
373.19 K	249.78	–
375.19 K	–	297.88
380 K	253.68	300.22
381.3 K	256.64	–
382.84 K	–	301.57
383.75 K	260.04	–
391.52 K	–	305.71
391.71 K	261.46	305.81
397.93 K	–	308.79
400 K	–	309.76
400.3 K	–	309.93
402.69 K	–	311.03
404.9 K	–	312.06
413.55 K	–	316.13
416.42 K	–	317.49
420 K	–	319.14
429.03 K	–	323.3
439.59 K	–	328.19
440 K	–	328.39

— the NIST ThermoML archive (doi:10.1016/j.jct.2009.11.011)
